Measurements taken from patent US12005055B2, “Methods for shrinking pituitary tumors” (Corcept Therapeutics Incorporated, priority 2018, dated 2024).
Entries after “also recorded” stand apart in the source; their conditions may differ.

How the values were obtained:
glucocorticoid receptor = glucocorticoid receptor (Homo sapiens, UniProt P04150); details: HepG2 cells; cited from earlier work
pituitary tumors = details: cited from earlier work
androgen receptor = androgen receptor (Homo sapiens, UniProt P10275); details: cited from earlier work
androgen receptor, sequence (P10275 whole entry, species assumed): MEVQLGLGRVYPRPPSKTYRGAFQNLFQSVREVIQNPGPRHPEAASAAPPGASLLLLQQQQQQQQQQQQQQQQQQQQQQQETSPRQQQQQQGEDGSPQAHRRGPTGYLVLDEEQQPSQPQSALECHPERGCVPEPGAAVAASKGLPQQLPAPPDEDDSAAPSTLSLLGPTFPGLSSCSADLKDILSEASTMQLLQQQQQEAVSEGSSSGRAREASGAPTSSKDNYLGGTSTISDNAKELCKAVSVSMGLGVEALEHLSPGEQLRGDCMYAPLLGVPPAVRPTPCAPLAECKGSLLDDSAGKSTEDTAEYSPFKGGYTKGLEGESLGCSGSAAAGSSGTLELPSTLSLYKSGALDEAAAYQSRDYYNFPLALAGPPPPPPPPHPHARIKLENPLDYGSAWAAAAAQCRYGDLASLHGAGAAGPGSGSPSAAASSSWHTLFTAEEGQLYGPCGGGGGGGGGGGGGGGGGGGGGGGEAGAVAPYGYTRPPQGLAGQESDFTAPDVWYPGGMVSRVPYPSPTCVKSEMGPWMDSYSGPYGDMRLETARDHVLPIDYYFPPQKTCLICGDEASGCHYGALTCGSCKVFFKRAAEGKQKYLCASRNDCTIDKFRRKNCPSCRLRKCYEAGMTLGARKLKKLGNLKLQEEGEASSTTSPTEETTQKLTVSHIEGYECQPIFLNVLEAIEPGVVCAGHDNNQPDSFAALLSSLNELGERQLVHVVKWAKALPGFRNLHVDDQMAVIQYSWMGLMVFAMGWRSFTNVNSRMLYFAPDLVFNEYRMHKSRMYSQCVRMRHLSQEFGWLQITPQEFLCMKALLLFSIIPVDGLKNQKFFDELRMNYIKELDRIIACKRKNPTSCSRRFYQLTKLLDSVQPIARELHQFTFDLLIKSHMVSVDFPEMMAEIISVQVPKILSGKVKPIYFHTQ

progesterone receptor = progesterone receptor (Homo sapiens, UniProt P06401); details: cited from earlier work
progesterone receptor, sequence (P06401 whole entry, species assumed): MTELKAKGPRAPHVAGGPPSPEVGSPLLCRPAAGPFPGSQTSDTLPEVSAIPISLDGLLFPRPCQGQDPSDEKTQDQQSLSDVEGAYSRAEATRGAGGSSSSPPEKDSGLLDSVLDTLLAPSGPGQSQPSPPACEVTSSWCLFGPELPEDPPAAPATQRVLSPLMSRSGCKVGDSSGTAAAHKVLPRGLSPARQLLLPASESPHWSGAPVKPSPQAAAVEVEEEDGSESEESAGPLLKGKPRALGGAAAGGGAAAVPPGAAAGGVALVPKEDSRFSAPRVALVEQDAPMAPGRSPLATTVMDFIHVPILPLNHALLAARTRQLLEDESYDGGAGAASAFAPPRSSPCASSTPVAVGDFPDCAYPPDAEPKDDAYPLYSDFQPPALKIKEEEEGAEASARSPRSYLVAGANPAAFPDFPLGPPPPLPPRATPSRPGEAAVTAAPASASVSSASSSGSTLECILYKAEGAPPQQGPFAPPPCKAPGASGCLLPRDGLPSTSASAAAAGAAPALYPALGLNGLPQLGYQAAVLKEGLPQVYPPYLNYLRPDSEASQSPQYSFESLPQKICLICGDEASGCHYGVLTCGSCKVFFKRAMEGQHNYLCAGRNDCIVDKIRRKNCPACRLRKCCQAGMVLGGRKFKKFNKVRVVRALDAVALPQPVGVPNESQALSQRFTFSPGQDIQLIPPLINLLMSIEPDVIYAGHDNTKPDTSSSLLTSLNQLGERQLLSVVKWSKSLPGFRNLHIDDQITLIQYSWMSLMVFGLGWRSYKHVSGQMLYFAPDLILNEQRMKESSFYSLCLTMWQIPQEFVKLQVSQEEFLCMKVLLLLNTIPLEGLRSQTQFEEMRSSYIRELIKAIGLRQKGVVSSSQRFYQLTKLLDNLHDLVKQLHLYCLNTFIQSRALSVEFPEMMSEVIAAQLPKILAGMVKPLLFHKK

pituitary macroadenoma = experiment: MRI measurement of pituitary tumor size in Cushing's Disease patients given relacorilant; format: in vivo, human
Text: The relacorilant administration disclosed herein can reduce tumor size and confer beneficial clinical outcomes to patients having a pituitary tumor. Methods for measuring the size of a pituitary tumor are well-known to skilled artisans in the field. For example, magnetic resonance imaging (MRI) and other imaging methods may be used to detect tumor shrinkage. Other methods for determining the effect of cancer therapy on tumor size are also known in the art, e.g., as described in the Response Evaluation Criteria in Solid Tumors (“RECIST”) guidelines, discussed, for example, in Chalian et al., Radiographics 31(7):2093-2105 (2011), and available at “protocolDevelopment/docs/recist_guideline.pdf” of the website “ctep.cancer.gov”.
Measuring tumor size is typically achieved by imaging-based techniques, including magnetic resonance imaging (MRI), computed tomography (CT), positron-emission tomography (PET) and other techniques. For example, MRI, CT, and PET scans can provide accurate and reliable anatomic information not only about tumor shrinkage or growth but also progression of disease by identifying either growth in existing lesions or the development of new lesions or tumor metastasis. Tumor size, including a reduction in tumor size, may be determined by measuring a linear dimension of a tumor (measuring may be accomplished, for example, by counting pixels on a digital image, by measuring a distance on a printed image or from an image projected onto a screen); by measuring two different linear dimensions of a tumor; by measuring three, or more, different linear dimensions of a tumor; by calculating (or estimating, based on measurements) a cross-sectional area of a tumor; by calculating (or estimating, based on measurements) a volume of a tumor; or by other means known in the art. […]

[1] = Clinical studies of relacorilant in patients with endogenous hypercortisolism; format: in vivo, human
Text: The following examples show the results of relacorilant administration to patients suffering from pituitary tumors.

[2] = biological target: T1, mineralocorticoid receptor (Homo sapiens, UniProt P08235); details: cited from earlier work
T1 sequence (P08235 1-984): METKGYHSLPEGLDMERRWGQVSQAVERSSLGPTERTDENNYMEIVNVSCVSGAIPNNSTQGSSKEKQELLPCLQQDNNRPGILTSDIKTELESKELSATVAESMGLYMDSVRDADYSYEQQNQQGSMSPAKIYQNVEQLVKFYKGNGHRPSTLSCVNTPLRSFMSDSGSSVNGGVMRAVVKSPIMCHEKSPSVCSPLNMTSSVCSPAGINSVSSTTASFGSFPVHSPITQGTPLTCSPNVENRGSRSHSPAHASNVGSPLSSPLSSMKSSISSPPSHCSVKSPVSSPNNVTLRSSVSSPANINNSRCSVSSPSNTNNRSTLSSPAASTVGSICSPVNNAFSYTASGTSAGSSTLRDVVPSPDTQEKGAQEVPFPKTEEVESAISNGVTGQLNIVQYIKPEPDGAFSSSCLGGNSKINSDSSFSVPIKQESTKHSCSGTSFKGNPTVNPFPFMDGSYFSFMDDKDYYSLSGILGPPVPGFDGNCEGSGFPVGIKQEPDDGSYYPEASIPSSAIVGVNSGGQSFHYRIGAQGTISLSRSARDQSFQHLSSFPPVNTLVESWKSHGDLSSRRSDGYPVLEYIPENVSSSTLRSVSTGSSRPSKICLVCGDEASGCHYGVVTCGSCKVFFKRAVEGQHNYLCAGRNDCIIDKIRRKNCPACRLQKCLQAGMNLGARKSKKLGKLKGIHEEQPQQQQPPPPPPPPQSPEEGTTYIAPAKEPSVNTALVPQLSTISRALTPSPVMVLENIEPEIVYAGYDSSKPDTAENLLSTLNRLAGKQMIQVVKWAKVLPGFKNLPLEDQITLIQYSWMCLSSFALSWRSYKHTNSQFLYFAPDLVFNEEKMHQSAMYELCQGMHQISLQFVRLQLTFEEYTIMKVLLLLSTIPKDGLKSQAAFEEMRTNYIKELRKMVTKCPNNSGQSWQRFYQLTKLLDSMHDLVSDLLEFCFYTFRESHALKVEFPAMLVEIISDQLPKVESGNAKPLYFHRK

estrogen receptor = details: cited from earlier work

glucocorticoid receptor, sequence (P04150 whole entry): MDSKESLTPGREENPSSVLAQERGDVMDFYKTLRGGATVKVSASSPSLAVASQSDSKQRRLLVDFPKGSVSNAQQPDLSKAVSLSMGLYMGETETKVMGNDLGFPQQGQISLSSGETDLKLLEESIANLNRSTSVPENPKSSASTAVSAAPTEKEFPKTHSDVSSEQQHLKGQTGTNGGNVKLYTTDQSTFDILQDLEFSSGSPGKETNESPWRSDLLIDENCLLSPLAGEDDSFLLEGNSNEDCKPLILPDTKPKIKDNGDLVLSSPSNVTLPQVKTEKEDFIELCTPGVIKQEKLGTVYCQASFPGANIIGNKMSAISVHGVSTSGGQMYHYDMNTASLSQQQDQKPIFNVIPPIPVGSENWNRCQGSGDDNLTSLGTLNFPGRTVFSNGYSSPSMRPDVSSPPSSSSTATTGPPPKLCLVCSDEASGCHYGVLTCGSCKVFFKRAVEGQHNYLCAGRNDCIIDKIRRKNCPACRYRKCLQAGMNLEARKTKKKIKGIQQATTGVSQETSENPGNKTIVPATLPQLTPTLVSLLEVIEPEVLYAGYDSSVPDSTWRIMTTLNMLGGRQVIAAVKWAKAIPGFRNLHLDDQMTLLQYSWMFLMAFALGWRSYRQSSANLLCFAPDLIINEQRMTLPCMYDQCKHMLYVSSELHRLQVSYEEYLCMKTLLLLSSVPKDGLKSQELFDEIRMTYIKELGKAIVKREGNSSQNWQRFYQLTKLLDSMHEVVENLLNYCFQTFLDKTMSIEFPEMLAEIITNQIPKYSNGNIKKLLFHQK

Structure (SMILES): CC#C[C@]1(O)CC[C@H]2[C@@H]3CCC4=CC(=O)CCC4=C3[C@@H](c3ccc(N(C)C)cc3)C[C@@]21C [mifepristone]
- effect on tyrosine aminotransferase (TAT) activity (glucocorticoid receptor): decreases
- tumor regression (MRI) (pituitary tumors; 17 Cushing's Disease patients with visible tumors (10 macroadenomas), mifepristone for 24 weeks): no regression
- MRI images of tumor over treatment (pituitary tumors; 17 patients, in one patient the tumor increased in size with 10 weeks of mifepristone): stable in all but one patient

Structure (SMILES): Cn1cc(S(=O)(=O)N2CCC3=Cc4c(cnn4-c4ccc(F)cc4)C[C@]3(C(=O)c3cc(C(F)(F)F)ccn3)C2)cn1 [relacorilant, (R)-(1-(4-fluorophenyl)-6-((1-methyl-1H-pyrazol-4-yl)sulfonyl)-4,4a,5,6,7,8-hexahydro-1H-pyrazolo[3,4-g]isoquinolin-4a-yl)(4-(trifluoromethyl)pyridin-2-yl)methanone]
- effect on androgen receptor (androgen receptor): does not significantly affect
- effect on progesterone receptor (progesterone receptor): does not significantly affect
- tumor volume shrinkage (pituitary macroadenoma; Example 2 patient, following three months of relacorilant administration): ~40%
- multiplication of the three post-treatment measurements (indication of tumor volume) (pituitary macroadenoma; Example 2 patient, pre-treatment measure 14,300 mm^3): 8,778 mm^3
- effect on pituitary tumor size (pituitary macroadenoma; two Cushing's Disease patients (both macroadenomas), three months of daily relacorilant): significant pituitary tumor shrinkage; also recorded: shrunk; also recorded: effective to reduce the size of pituitary tumors
- tolerability ([1]; clinical studies): well tolerated
- glycemic and hypertension control and other manifestations of cortisol excess ([1]; patients with endogenous hypercortisolism): significantly improved
- effect on mineralocorticoid receptor [2]: does not significantly affect
- effect on estrogen receptor (estrogen receptor): does not significantly affect
